# Experimental data from article PMC7906020, “Trp-Containing Antibacterial Peptides Impair Quorum Sensing and Biofilm Development in Multidrug-Resistant Pseudomonas aeruginosa and Exhibit Synergistic Effects With Antibiotics” (Frontiers in Microbiology, 2021).
# Several values for one entry are separate records, joined by “and”; a condition that tells them apart may be missing. Identical values can stand only once. Peptide text beside a SMILES is read from it.
# How the values were obtained:
# [1] = system: OprM gene expression in MRPA0108; experiment: Real-time qPCR of efflux pump gene OprM; type: cell-based, Pseudomonas aeruginosa; conditions: peptide at its MIC (I1W 6.25 μM, L12W 25 μM); Supplementary Figure S2
# Protocol: Mid-logarithmic (mid-log) growth-phase MRPA0108 cells (1 × 10^8 CFU/ml) were incubated with the different concentrations of peptide at 37°C for 18 h. The bacterial cells were collected by centrifugation at 13,000×g and digested in lysis buffer containing 10 mg/ml lysozyme. Total RNA was isolated by using a TRIzol® Max^TM Kit (Invitrogen, Shanghai, China) according to the manufacturer’s instructions and subsequently reverse transcribed into cDNA using a Prime Script RT Master Mix Kit (Takara, Dalian, China). Real-time PCR was performed in an ABI QuantStudio^TM 5 sequence detection system (Applied Biosystems, United States) using 2 × SYBR Premix Ex Taq II (Solarbio Science and Technology Co., Ltd.). The PCR cycling conditions were as follows: 95°C for 30 s and 40 cycles of 5 s at 95°C, 30 s at 60°C, and 20 s at 72°C. The fold changes calculated according to the comparative cycle threshold (Ct) method were used for quantifying gene expression, normalizing to the expression of the housekeeping gene rpsL. PCR primers, including those for lasA, lasB, rhlA, rhlB, pelA, algD, psl, oprD, oprM, mexA, and mexB, were synthesized by Sangon Biotech (Shanghai, China) and are presented in Supplementary Table S2.
# MRPA0108 biofilms = experiment: Confocal laser scanning microscopy of biofilms (LIVE/DEAD staining); type: cell-based, Pseudomonas aeruginosa; conditions: 24 h; for percentage of dead/live cells in biofilm: SYTO9/PI, control 8.7%
# Protocol: Biofilms of MRPA0108 were visualized by confocal microscopy. Mid-log growth-phase bacteria were diluted to 1 × 10^7 CFU/ml. […] LB liquid medium and erythromycin were used as negative and positive controls, respectively. After incubation, the supernatant was removed, and the slides were washed and stained in a dark environment for 30 min using a LIVE/DEAD BacLight^TM Bacterial Viability Kit (Invitrogen, Life Technologies, Shanghai, China). The slides were washed three times and imaged with a confocal laser scanning microscope (LSM 710, Carl Zeiss, Germany) with excitation/emission wavelengths of 480/500 and 490/635 nm for SYTO9 and propidium iodide (PI), respectively. SYTO9 was used to indicate live bacteria, and PI was used to mark dead bacteria.
# [2] = cited from earlier work
# Description: Supplement Table_1.docx, table 1: Table S1 Biological characteristics and antibacterial activities of the Trp-containing antimicrobial peptides (32) | column: Hemolysis (μM)
# [3] = system: LasB elastase of MRPA0108; experiment: LasB elastase activity, elastin-Congo red method; type: cell-based, Pseudomonas aeruginosa; conditions: peptide at 1/4 × MIC, 24 h, 37°C; ECR substrate, OD495/OD600; vs control; triplicate
# Protocol: The culture supernatant was obtained after centrifugation at 12,000×g for 10 min. (1) LasB elastase activity was measured using elastin-Congo red (ECR) as the substrate, as described by [Pattnaik et al. (2018)]. Briefly, 100 μl of the culture supernatant was added to 900 μl of ECR buffer (100 mM Tris-HCl, 1 mM CaCl2, pH 7.5) containing 10 mg of ECR and then incubated with shaking at 37°C for 18 h. Then, 100 μl of 0.12 M EDTA was added to stop the reaction. The insoluble ECR was removed by centrifugation, and the supernatant absorbance was measured at 495 nm. The optical density (OD) 495 nm/OD 600 nm represents the elastase activity. (2) LasA protease activity was measured as follows ([Pattnaik et al., 2018]): first, the culture supernatant was filtered to remove the bacterial cells, and then 150 μl of sterile-filtered supernatant was added to 2% azocasein (prepared in 50 mM Tris-HCl) and incubated for 4 h at 37°C. Trichloroacetic acid (TCA, 10%) was added to precipitate the undigested substrate. After centrifugation at 10,000 rpm for 10 min, 1 M NaOH was added to the supernatant, and the relative protease activity was measured at OD 440 nm. (3) The pyocyanin assay was based on the absorbance of excreted pyocyanin at 520 nm in an acidic solution ([Kong et al., 2005]). Three milliliters of culture supernatant were mixed with 2 ml of chloroform for 20 min, and then the pyocyanin from the chloroform phase was reextracted using 0.2 M HCl for 15 min to obtain a pink-colored pyocyanin solution. The OD 520 nm was measured to evaluate the change in pyocyanin content. (4) Rhamnolipid detection was carried out as previously described ([Wittgens et al., 2011]). Briefly, 500 μl of culture supernatant was mixed with 500 μl of ethyl acetate and vortexed vigorously for 15 s to extract rhamnolipid. After centrifugation at 10,000×g for 5 min at 4°C, the organic phase containing rhamnolipids was obtained and evaporated at room temperature overnight. […] The absorbance was measured at 420 nm. (5) The level of C4-HSL was quantified by GC-MS as previously described ([Guo et al., 2012]).
# [4] = system: alginate production in MRPA0108; experiment: Alginate determination, H2SO4-carbazole method; type: cell-based, Pseudomonas aeruginosa; conditions: OD 530 nm
# Protocol: Exopolysaccharides were determined using the phenol-H2SO4 method. Briefly, after incubation, the cultures were centrifuged at 10,000 rpm for 15 min, and the pellets were resuspended in high-salt buffer (10 mM KPO4, 5 mM NaCl, 2.5 mM MgSO4, pH 7.0), followed by recentrifugation at 10,000 rpm for 30 min. The resulting supernatant was mixed with three volumes of chilled ethanol (100%) and incubated overnight at 4°C. The precipitated exopolysaccharide was added to a mixture containing cold phenol and H2SO4, and the absorbance of the solution was measured at 490 nm. Alginate content was determined using the H2SO4-carbazole method. Briefly, after incubation, the precooled cultures were mixed with an H2SO4 solution (4:1) and vortexed in ice water, and then 0.2% carbazole dissolved in ethanol was added. The mixture was revortexed and incubated at 55°C for 30 min, and the OD 530 nm was measured.
# [5] = system: rhamnolipid production in MRPA0108; experiment: Rhamnolipid production, orcinol method; type: cell-based, Pseudomonas aeruginosa; conditions: peptide at 1/4 × MIC, 24 h, absorbance 420 nm, vs control, triplicate
# Protocol: The culture supernatant was obtained after centrifugation at 12,000×g for 10 min. (1) LasB elastase activity was measured using elastin-Congo red (ECR) as the substrate, as described by [Pattnaik et al. (2018)]. Briefly, 100 μl of the culture supernatant was added to 900 μl of ECR buffer (100 mM Tris-HCl, 1 mM CaCl2, pH 7.5) containing 10 mg of ECR and then incubated with shaking at 37°C for 18 h. Then, 100 μl of 0.12 M EDTA was added to stop the reaction. The insoluble ECR was removed by centrifugation, and the supernatant absorbance was measured at 495 nm. The optical density (OD) 495 nm/OD 600 nm represents the elastase activity. (2) LasA protease activity was measured as follows ([Pattnaik et al., 2018]): first, the culture supernatant was filtered to remove the bacterial cells, and then 150 μl of sterile-filtered supernatant was added to 2% azocasein (prepared in 50 mM Tris-HCl) and incubated for 4 h at 37°C. Trichloroacetic acid (TCA, 10%) was added to precipitate the undigested substrate. After centrifugation at 10,000 rpm for 10 min, 1 M NaOH was added to the supernatant, and the relative protease activity was measured at OD 440 nm. (3) The pyocyanin assay was based on the absorbance of excreted pyocyanin at 520 nm in an acidic solution ([Kong et al., 2005]). Three milliliters of culture supernatant were mixed with 2 ml of chloroform for 20 min, and then the pyocyanin from the chloroform phase was reextracted using 0.2 M HCl for 15 min to obtain a pink-colored pyocyanin solution. The OD 520 nm was measured to evaluate the change in pyocyanin content. (4) Rhamnolipid detection was carried out as previously described ([Wittgens et al., 2011]). Briefly, 500 μl of culture supernatant was mixed with 500 μl of ethyl acetate and vortexed vigorously for 15 s to extract rhamnolipid. After centrifugation at 10,000×g for 5 min at 4°C, the organic phase containing rhamnolipids was obtained and evaporated at room temperature overnight. The rhamnolipid extract dissolved in ultrapure water was mixed with orcinol reagent (0.19% orcinol in 53% H2SO4) and incubated at 80°C for 30 min. The absorbance was measured at 420 nm. (5) The level of C4-HSL was quantified by GC-MS as previously described ([Guo et al., 2012]).
# MRPA0108 strain = conditions: previous study, ref Han et al., 2020; cited from earlier work
# Description: Supplement Table_1.docx, table 1: Table S1 Biological characteristics and antibacterial activities of the Trp-containing antimicrobial peptides (32) | column: MIC(μM)
compound,measurement,setting,value
CC[C@H](C)[C@H](NC(=O)[C@H](CCCCN)NC(=O)[C@H](CO)NC(=O)[C@H](CC(C)C)NC(=O)[C@@H](NC(=O)[C@H](CCCCN)NC(=O)[C@H](CCCCN)NC(=O)[C@@H](N)Cc1c[nH]c2ccccc12)[C@@H](C)CC)C(=O)N[C@@H](CCCCN)C(=O)N[C@@H](CCCCN)C(=O)N[C@@H](CC(C)C)C(=O)N[C@@H](CC(C)C)C(=O)N[C@@H](CCCCN)C(N)=O [I1W] (H-WKKILSKIKKLLK-NH2; N-terminus and C-terminus assumed),reduction of OprM gene expression,[1],22.3%
same,average biofilm thickness,"MRPA0108 biofilms; after treatment with low concentrations of peptide (1 × MIC or 2 × MIC), 37°C, control biofilm 6 μm",1.5–2.5 μm and 1.5 μm
same,percentage of dead/live cells in biofilm,MRPA0108 biofilms; peptide at 1 × MIC,29.9%
same,percentage of dead/live cells in biofilm,MRPA0108 biofilms; peptide at 2 × MIC,47.9%
same,Hemolysis,[2],> 500 µM
same,decrease of LasB elastase activity,[3],21.0%
same,inhibition of alginate production,[4]; peptide at 1/4 × MIC,53%
same,inhibition of alginate production,[4]; peptide at 1 × MIC,74%
same,inhibition of rhamnolipid production,[5],45.2%
same,MIC,MRPA0108 strain,6.25 µM
